Structures are written as SMILES.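 Tested at 5 concentrations; 48 h exposure; 96-well plates; endpoints linearly interpolated, else capped at highest concentration. TGI: total growth inhibition.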

Among the test systems are K-562 leukemia; RXF 393 renal; DU-145 prostate; OVCAR-8 ovarian; MDA-N; MDA-MB-435; UACC-62 melanoma; HS 578T breast; RPMI-8226 leukemia; KM12 colon.
Common to all, as to experiment: NCI-60 cell line screen, 48 h

With `CCc1n[nH]c(=O)n1/N=C/c1ccccc1Cl`, the TGI with K-562 leukemia, in the assay with RXF 393 renal, in the assay on DU-145 prostate, in the assay on OVCAR-8 ovarian, in the assay with MDA-N and in the assay on MDA-MB-435 was more than 100 µM in each case. For the same compound, the TGI in the assay with UACC-62 melanoma is more than 100 µM; with HS 578T breast it was 10.2 µM; in the assay with RPMI-8226 leukemia, more than 100 µM; in the assay with KM12 colon, more than 100 µM.
As for `O=[N+]([O-])c1cccc2nc3ccccc3c(NCCc3cccc[n+]3[O-])c12`, the TGI in the assay with K-562 leukemia is more than 100 µM; with RXF 393 renal, 0.11 µM; in the assay on DU-145 prostate, less than 0.0277 µM; in the assay on OVCAR-8 ovarian it was 0.302 µM; in the assay on MDA-N, 0.0464 µM; with MDA-MB-435, less than 0.0184 µM. Moreover, the TGI is 0.211 µM with UACC-62 melanoma, 0.299 µM in the assay on HS 578T breast, 0.0679 µM in the assay on RPMI-8226 leukemia and 0.552 µM with KM12 colon.
For `CCOc1ccc(/C(O)=C/c2nc3ccccc3nc2/C=C(\O)c2ccc(OCC)cc2)cc1`, the TGI in the assay on K-562 leukemia, with RXF 393 renal, in the assay on DU-145 prostate, with MDA-N, in the assay with MDA-MB-435 and with UACC-62 melanoma was more than 100 µM in each case. The TGI with HS 578T breast and in the assay with RPMI-8226 leukemia was more than 100 µM throughout.
For the compound `CN1CN(c2ccccc2)C2(CCN(CCCSc3ccccc3NC(=O)/C=C/c3ccccc3)CC2)C1=O`, the TGI in the assay on K-562 leukemia came out at 15.6 µM; in the assay with RXF 393 renal it was 31.9 µM; in the assay with DU-145 prostate, 18.2 µM; in the assay on OVCAR-8 ovarian, 32.6 µM; in the assay on MDA-N, 6.33 µM; with MDA-MB-435 it was 6.91 µM. Besides, the TGI in the assay on UACC-62 melanoma came out at 6.37 µM; in the assay on HS 578T breast, 15 µM; in the assay with KM12 colon, 17.9 µM.
In the case of `O=c1[nH]c(Nc2cccc(C(F)(F)F)c2)nc2nc[nH]c12`, the TGI in the assay on K-562 leukemia, with RXF 393 renal, in the assay with DU-145 prostate, with OVCAR-8 ovarian, with MDA-N and in the assay with MDA-MB-435 was more than 100 µM in each case. The TGI in the assay with HS 578T breast, in the assay with RPMI-8226 leukemia and with KM12 colon was more than 100 µM in each case.
Consider `Cc1cccc2c1Oc1ccccc1C2NC(=O)c1ccc([N+](=O)[O-])cc1` (centres undefined), for which the TGI is more than 100 µM in the assay on K-562 leukemia; 89.2 µM in the assay on RXF 393 renal; more than 100 µM with DU-145 prostate; more than 100 µM in the assay on OVCAR-8 ovarian; more than 100 µM in the assay on MDA-N; more than 100 µM with UACC-62 melanoma. Moreover, the TGI was 82.6 µM in the assay on HS 578T breast, more than 100 µM in the assay with RPMI-8226 leukemia and more than 100 µM in the assay with KM12 colon.
In the case of `O=C(CC(=O)N1N=C(N2CCCCC2)CC1c1ccccc1)Nc1ccc(Cl)cc1` (centres undefined), the TGI with DU-145 prostate, in the assay with OVCAR-8 ovarian, in the assay with MDA-N, in the assay on MDA-MB-435, with UACC-62 melanoma and with HS 578T breast was more than 100 µM throughout. In the assay on KM12 colon, this compound yielded a TGI of more than 100 µM.
For the compound `Nc1c(-c2nc3ccccc3s2)c2ccc([N+](=O)[O-])cc2c(=O)n1-c1cccc(C(=O)O)c1`, the TGI with DU-145 prostate is 64.7 µM; in the assay with OVCAR-8 ovarian, 68.6 µM; in the assay on MDA-N, more than 100 µM; in the assay with MDA-MB-435 it was more than 100 µM; in the assay with UACC-62 melanoma, 58.6 µM; in the assay with HS 578T breast it was more than 100 µM. In the assay with KM12 colon, this compound registered a TGI of more than 100 µM.
Turning to `O=C(/C=C/c1ccc(Cl)cc1)Oc1ccc(/C=C2\CCCCC2=O)cc1`, the TGI in the assay with DU-145 prostate, in the assay on OVCAR-8 ovarian, in the assay on MDA-N, with MDA-MB-435, with UACC-62 melanoma and in the assay with HS 578T breast was more than 100 µM throughout. The TGI with RPMI-8226 leukemia and with KM12 colon was more than 100 µM in each case.
As to `CC1(C)C(=O)C(C)(C)C12SSC1(S2)C(C)(C)C(=O)C1(C)C`, the TGI with K-562 leukemia, in the assay on DU-145 prostate, with OVCAR-8 ovarian, in the assay on MDA-N, in the assay on MDA-MB-435 and with UACC-62 melanoma was more than 100 µM throughout. Also, the TGI in the assay with HS 578T breast, with RPMI-8226 leukemia and with KM12 colon was more than 100 µM each time.
With `CC1(C)CC(=O)C2=C(C1)c1c(ccc3ccccc13)NC2c1cn(Cc2ccc(Cl)cc2)c2ccccc12` (centres undefined), the TGI with K-562 leukemia, in the assay with DU-145 prostate, with OVCAR-8 ovarian, in the assay with MDA-N, in the assay with MDA-MB-435 and in the assay on UACC-62 melanoma was more than 100 µM in each case. The TGI in the assay with HS 578T breast, with RPMI-8226 leukemia and with KM12 colon was more than 100 µM in each case.
For `CCCc1cc(=O)oc2c3c(c4c(c12)OC(C)(C)C=C4)O[C@@H](C)[C@H](C)C3=O`, the TGI in the assay with K-562 leukemia is 27.7 µM; in the assay on DU-145 prostate, 61.1 µM; with OVCAR-8 ovarian it was 45.4 µM; in the assay on MDA-N, 36.4 µM; in the assay with MDA-MB-435, 58.8 µM; in the assay with HS 578T breast it was 38.7 µM. Also, the TGI came out at 31.2 µM with RPMI-8226 leukemia and 27.9 µM with KM12 colon.
For `CC1(C2(C)OC(=O)c3ccccc32)OC(=O)c2ccccc21` (centres undefined), the TGI in the assay with RXF 393 renal, in the assay on DU-145 prostate, in the assay on OVCAR-8 ovarian, in the assay with MDA-N, in the assay on MDA-MB-435 and in the assay with UACC-62 melanoma was more than 100 µM throughout. The TGI in the assay with HS 578T breast, with RPMI-8226 leukemia and with KM12 colon was more than 100 µM throughout.
For the compound `Clc1ccc(Oc2ccc(N=Cc3ccc(Cl)cc3Cl)cc2Cl)cc1`, the TGI was more than 100 µM in the assay with DU-145 prostate; more than 100 µM in the assay on OVCAR-8 ovarian; 33.7 µM in the assay with MDA-N; 49.7 µM in the assay with MDA-MB-435; more than 100 µM in the assay on UACC-62 melanoma; 71.1 µM with HS 578T breast. Further, the TGI in the assay with RPMI-8226 leukemia and with KM12 colon was more than 100 µM in each case.
For the compound `O=C/C(=C(/Br)I)c1ccccc1`, the TGI was 3.85 µM in the assay on K-562 leukemia; 7.2 µM in the assay with RXF 393 renal; 29.2 µM in the assay with DU-145 prostate; 10.6 µM in the assay with OVCAR-8 ovarian; 6.86 µM in the assay on MDA-N; 6.74 µM in the assay on MDA-MB-435. The TGI in the assay on UACC-62 melanoma was 44.4 µM; with HS 578T breast, more than 60 µM; with KM12 colon, 19 µM.
Regarding `CC1=C2c3c(C)ccc4ccc(C)c(c34)C2(O)C(C)C1=O` (centres undefined), the TGI with K-562 leukemia is more than 100 µM; with DU-145 prostate it was more than 100 µM; in the assay on OVCAR-8 ovarian, 49.4 µM; in the assay on MDA-N, more than 100 µM; with MDA-MB-435, more than 100 µM; with UACC-62 melanoma it was more than 100 µM. For the same compound, the TGI in the assay with HS 578T breast, in the assay with RPMI-8226 leukemia and in the assay on KM12 colon was more than 100 µM throughout.
As for `O=c1oc2ccccc2c(O)c1C(c1ccco1)c1c(O)c2ccccc2oc1=O`, the TGI in the assay on K-562 leukemia is more than 100 µM; in the assay with DU-145 prostate, more than 100 µM; in the assay with OVCAR-8 ovarian, 82 µM; in the assay with MDA-N, 44.9 µM; with MDA-MB-435, 85.4 µM; in the assay with UACC-62 melanoma it was 70 µM. The TGI in the assay on HS 578T breast was more than 100 µM; in the assay with RPMI-8226 leukemia, 66.1 µM; with KM12 colon, more than 100 µM.
`CC1(C23CC4CC(CC(C4)C2)C3)n2c(=O)n(-c3ccccc3)c(=O)n2C1(C)C12CC3CC(CC(C3)C1)C2` (centres undefined): the TGI in the assay on K-562 leukemia, in the assay on DU-145 prostate, in the assay on OVCAR-8 ovarian, in the assay on MDA-N, in the assay with MDA-MB-435 and in the assay on UACC-62 melanoma was more than 100 µM throughout. The TGI with HS 578T breast, in the assay on RPMI-8226 leukemia and with KM12 colon was more than 100 µM throughout.
`O=c1cc(N2CCOCC2)[nH]c(=O)n1-c1cccc(C(F)(F)F)c1`: the TGI in the assay with K-562 leukemia, in the assay on DU-145 prostate, with OVCAR-8 ovarian, in the assay on MDA-N, in the assay with MDA-MB-435 and in the assay with UACC-62 melanoma was more than 100 µM in each case. For the same compound, the TGI with HS 578T breast and in the assay with KM12 colon was more than 100 µM each time.
With `O=C1CCC[C@]2(CCC[C@@H](O)C2)N1`, the TGI in the assay on K-562 leukemia, with RXF 393 renal, in the assay with DU-145 prostate, with OVCAR-8 ovarian, with MDA-N and in the assay with HS 578T breast was more than 100 µM throughout. For the same compound, the TGI in the assay with KM12 colon was more than 100 µM.
Turning to `CC1CC[C@@]2(OC1)OC1C[C@H]3[C@@H]4C/C(=N\N(C)C)[C@@]5(O)CC(O)CC[C@]5(C)[C@H]4CC[C@]3(C)C1[C@@H]2C` (some centres undefined), the TGI in the assay on K-562 leukemia is more than 100 µM; in the assay on RXF 393 renal, 61.2 µM; in the assay with DU-145 prostate, more than 100 µM; in the assay on MDA-N, 52.6 µM; in the assay with MDA-MB-435, more than 100 µM; in the assay with UACC-62 melanoma it was more than 100 µM. Moreover, the TGI in the assay with HS 578T breast, in the assay with RPMI-8226 leukemia and in the assay with KM12 colon was more than 100 µM each time.
As for `Cn1c(=O)cc(NCc2ccc(Cl)cc2)[nH]c1=O`, the TGI in the assay with K-562 leukemia, in the assay on RXF 393 renal, in the assay with OVCAR-8 ovarian, in the assay on MDA-N, with MDA-MB-435 and in the assay with UACC-62 melanoma was more than 100 µM each time. In addition, the TGI was 61.3 µM in the assay with HS 578T breast, more than 100 µM in the assay with RPMI-8226 leukemia and more than 100 µM in the assay with KM12 colon.

Source of the values: PubChem BioAssay (NCI).
